This is an account of results in US10793568B2, “Hormone receptor modulators for treating metabolic conditions and disorders” (ARDELYX, INC., priority 2016, dated 2020).

The target in test [1] is ligand binding domain of human FXR (Homo sapiens (Human), UniProt Q96RI1). Briefly: FXR ligand binding assay (LanthaScreen TR-FRET, SRC2-2 peptide recruitment). The conditions noted are these: for pEC50: -log EC50, concentration required to produce 50% activation; for Emax / % Efficacy: extent of activation relative to GW4064; for Emax: read-out: % Efficacy. In general terms: TR-FRET usually uses a lanthanide donor and a delayed reading to cut background.
Chain of ligand binding domain of human FXR (Q96RI1 262-486): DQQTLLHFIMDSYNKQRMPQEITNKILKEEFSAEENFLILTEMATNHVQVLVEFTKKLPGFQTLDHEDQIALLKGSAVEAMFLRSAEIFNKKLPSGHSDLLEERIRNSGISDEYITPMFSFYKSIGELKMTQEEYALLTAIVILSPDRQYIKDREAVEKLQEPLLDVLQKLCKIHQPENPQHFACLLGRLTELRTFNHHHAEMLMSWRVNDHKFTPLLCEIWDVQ

Test [2] concerns the target human Farnesoid X receptor ligand-binding domain/Gal4 DNA binding domain chimera (Homo sapiens (Human), UniProt Q96RI1). Description: Cell-based assay of FXR activation (FXR-UAS-bla HEK 293T beta-lactamase reporter). The conditions noted are these: cellular FXR beta-lactamase reporter assay; for Emax: HEK-293T, read-out: % Efficacy; for Emax / % Efficacy: extent of activation relative to GW4064; for EC50 / pEC50: FXR-UAS-bla HEK 293T cells, 16 h, pEC50 = -log EC50. The method in brief: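 HEK 293T cells stably expressing a Gal4-fused human FXR LBD and a UAS-driven beta-lactamase reporter were incubated with serially diluted compounds for 16 h at 37 °C in phenol red-free DMEM with 2% charcoal-stripped FBS. CCF4 FRET read-out: excitation 409 nm, emission 447 nm. pEC50 comes from a 3-parameter logistic fit, and efficacy is given as % of GW4064.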

Chain of human Farnesoid X receptor ligand-binding domain/Gal4 DNA binding domain chimera (Q96RI1 262-486, change not shown): as the sequence (Q96RI1 262-486) above
Chain of human Farnesoid X receptor ligand-binding domain/Gal4 DNA binding domain chimera (P04386 1-147 partner): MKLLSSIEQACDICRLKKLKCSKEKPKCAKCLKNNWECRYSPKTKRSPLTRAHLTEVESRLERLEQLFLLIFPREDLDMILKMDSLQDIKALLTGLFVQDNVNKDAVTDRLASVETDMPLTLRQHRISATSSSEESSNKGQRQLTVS

Broadly, the pEC50 is the EC50 on a negative log10 scale, so that one unit is a factor of ten. For orientation: EC50 means the concentration at which the effect is half-maximal. With `CC(C)(C)c1cc(C(=O)O)cc2sc(N3C[C@@H]4C[C@H]3C[C@H]4OCc3c(-c4c(Cl)cccc4Cl)noc3C3CC3)nc12` [Compound I-248, 4-tert-butyl-2-[(1S,4S,5R)-5-{[5-cyclopropyl-3-(2,6-dichlorophenyl)-1,2-oxazol-4-yl]methoxy}-2-azabicyclo[2.2.1]heptan-2-yl]-1,3-benzothiazole-6-carboxylic Acid], in test [1], the pEC50 stood at 7.8 and the Emax was 116%. For the same compound, in test [2], the Emax turned out to be 112% and the EC50 is 0.631 nM.

With `O=C(O)c1cc(C2CCC2)c2nc(N3C[C@@H]4C[C@H]3C[C@H]4OCc3c(-c4c(Cl)cccc4Cl)noc3C3CC3)sc2c1` [Compound I-249, 4-cyclobutyl-2-[(1S,4S,5R)-5-{[5-cyclopropyl-3-(2,6-dichlorophenyl)-1,2-oxazol-4-yl]methoxy}-2-azabicyclo[2.2.1]heptan-2-yl]-1,3-benzothiazole-6-carboxylic Acid], in test [1], the pEC50 came out at 8.4 and the Emax was found to be 134%. Also, in test [2], the Emax is 114% and the response was half-maximal at 0.158 nM (EC50).

As for `O=C(O)c1cc(C2CCCC2)c2nc(N3C[C@@H]4C[C@H]3C[C@H]4OCc3c(-c4c(Cl)cccc4Cl)noc3C3CC3)sc2c1` [Compound I-250, 4-cyclopentyl-2-[(1S,4S,5R)-5-{[5-cyclopropyl-3-(2,6-dichlorophenyl)-1,2-oxazol-4-yl]methoxy}-2-azabicyclo[2.2.1]heptan-2-yl]-1,3-benzothiazole-6-carboxylic Acid], in test [1], the pEC50 amounted to 7.8 and the Emax worked out at 128%. In test [2], the Emax amounted to 114% and the EC50 is 0.501 nM.

Take `O=C(O)c1cc(C2CCOC2)c2nc(N3C[C@@H]4C[C@H]3C[C@H]4OCc3c(-c4c(Cl)cccc4Cl)noc3C3CC3)sc2c1` (stereo partly drawn) [Compound I-251, 2-[(1S,4S,5R)-5-{[5-cyclopropyl-3-(2,6-dichlorophenyl)-1,2-oxazol-4-yl]methoxy}-2-azabicyclo[2.2.1]heptan-2-yl]-4-(oxolan-3-yl)-1,3-benzothiazole-6-carboxylic Acid]: in test [1], the pEC50 amounted to 9.1 and the Emax was found to be 133%. Further, in test [2], the Emax came out at 110% and the half-maximal effective concentration (EC50) is 0.2 nM.

On to `O=C(O)c1cc([C@@H]2CCOC2)c2nc(N3C[C@@H]4C[C@H]3C[C@H]4OCc3c(-c4c(Cl)cccc4Cl)noc3C3CC3)sc2c1` [Compound I-252, 2-[(1S,4S,5R)-5-{[5-cyclopropyl-3-(2,6-dichlorophenyl)-1,2-oxazol-4-yl]methoxy}-2-azabicyclo[2.2.1]heptan-2-yl]-4-[(3S)-oxolan-3-yl]-1,3-benzothiazole-6-carboxylic Acid], for which, in test [1], the pEC50 worked out at 8.6 and the Emax was 135%. In test [2], the Emax amounted to 107% and a half-maximal effect (EC50) was put at 0.2 nM.

Consider `O=C(O)c1cc([C@H]2CCOC2)c2nc(N3C[C@@H]4C[C@H]3C[C@H]4OCc3c(-c4c(Cl)cccc4Cl)noc3C3CC3)sc2c1` [Compound I-253, 2-[(1S,4S,5R)-5-{[5-cyclopropyl-3-(2,6-dichlorophenyl)-1,2-oxazol-4-yl]methoxy}-2-azabicyclo[2.2.1]heptan-2-yl]-4-[(3R)-oxolan-3-yl]-1,3-benzothiazole-6-carboxylic Acid], for which, in test [1], the negative logarithm of the EC50 (pEC50) was found to be 8.6 and the Emax stood at 140%. Moreover, in test [2], the Emax turned out to be 107% and the 50% effective concentration (EC50) is 0.158 nM.

Regarding `O=C(O)c1cc(C2CCOCC2)c2nc(N3C[C@@H]4C[C@H]3C[C@H]4OCc3c(-c4c(Cl)cccc4Cl)noc3C3CC3)sc2c1` [Compound I-254, 2-[(1S,4S,5R)-5-{[5-cyclopropyl-3-(2,6-dichlorophenyl)-1,2-oxazol-4-yl]methoxy}-2-azabicyclo[2.2.1]heptan-2-yl]-4-(oxan-4-yl)-1,3-benzothiazole-6-carboxylic Acid], in test [1], the pEC50 is reported as 9 and the Emax was determined as 143%. Moreover, in test [2], the Emax was 106% and the EC50 is 0.316 nM.

As to `O=C(O)c1cc([C@H]2C[C@H]3CC[C@@H](C2)O3)c2nc(N3C[C@@H]4C[C@H]3C[C@H]4OCc3c(-c4c(Cl)cccc4Cl)noc3C3CC3)sc2c1` [Compound I-255, 2-[(1S,4S,5R)-5-{[5-cyclopropyl-3-(2,6-dichlorophenyl)-1,2-oxazol-4-yl]methoxy}-2-azabicyclo[2.2.1]heptan-2-yl]-4-[(1R,3R,5S)-8-oxabicyclo[3.2.1]octan-3-yl]-1,3-benzothiazole-6-carboxylic Acid], the pEC50 in test [1] was 8.4; in test [2], 9.3. The “% Efficacy” value in test [1] turned out to be 150%; in test [2] it was 104%.

In the case of `O=C(O)c1cc([C@@H]2C[C@H]3CC[C@@H](C2)O3)c2nc(N3C[C@@H]4C[C@H]3C[C@H]4OCc3c(-c4c(Cl)cccc4Cl)noc3C3CC3)sc2c1` [Compound I-256, 2-[(1S,4S,5R)-5-{[5-cyclopropyl-3-(2,6-dichlorophenyl)-1,2-oxazol-4-yl]methoxy}-2-azabicyclo[2.2.1]heptan-2-yl]-4-[(1R,3S,5S)-8-oxabicyclo[3.2.1]octan-3-yl]-1,3-benzothiazole-6-carboxylic Acid], in test [1], the pEC50 turned out to be 8.4 and the “% Efficacy” value came out at 157%. For the same compound, in test [2], the negative-log EC50 (pEC50) worked out at 9.7 and the “% Efficacy” value is recorded as 107%.

For the compound `O=C(O)c1cc(C2CC3(CCOCC3)C2)c2nc(N3C[C@@H]4C[C@H]3C[C@H]4OCc3c(-c4c(Cl)cccc4Cl)noc3C3CC3)sc2c1` [Compound I-257, 2-[(1S,4S,5R)-5-{[5-cyclopropyl-3-(2,6-dichlorophenyl)-1,2-oxazol-4-yl]methoxy}-2-azabicyclo[2.2.1]heptan-2-yl]-4-{7-oxaspiro[3.5]nonan-2-yl}-1,3-benzothiazole-6-carboxylic Acid], in test [1], the pEC50 was 8.6 and the Emax was 148%. Besides, in test [2], the Emax was 108% and the concentration for a half-maximal effect (EC50) was 0.1 nM.

In the case of `O=C(O)c1cc(C2CCCOCC2)c2nc(N3C[C@@H]4C[C@H]3C[C@H]4OCc3c(-c4c(Cl)cccc4Cl)noc3C3CC3)sc2c1` (stereo partly drawn) [Compound I-258, 2-[(1S,4S,5R)-5-{[5-cyclopropyl-3-(2,6-dichlorophenyl)-1,2-oxazol-4-yl]methoxy}-2-azabicyclo[2.2.1]heptan-2-yl]-4-(oxepan-4-yl)-1,3-benzothiazole-6-carboxylic Acid], in test [1], the pEC50 amounted to 8.6 and the Emax stood at 146%. In addition, in test [2], the Emax was determined as 106% and it took 0.126 nM to reach a half-maximal effect (EC50).

Consider `O=C(O)c1cc(OC2CC2)c2nc(N3C[C@@H]4C[C@H]3C[C@H]4OCc3c(-c4c(Cl)cccc4Cl)noc3C3CC3)sc2c1` [Compound I-259, 4-cyclopropoxy-2-[(1S,4S,5R)-5-{[5-cyclopropyl-3-(2,6-dichlorophenyl)-1,2-oxazol-4-yl]methoxy}-2-azabicyclo[2.2.1]heptan-2-yl]-1,3-benzothiazole-6-carboxylic Acid], for which, in test [1], the pEC50 was 8.5 and the Emax worked out at 124%. In addition, in test [2], the Emax turned out to be 114% and a half-maximal effect (EC50) was put at 0.1 nM.

For the compound `O=C(O)c1cc(O[C@H]2CCOC2)c2nc(N3C[C@@H]4C[C@H]3C[C@H]4OCc3c(-c4c(Cl)cccc4Cl)noc3C3CC3)sc2c1` [Compound I-260, 2-[(1S,4S,5R)-5-{[5-cyclopropyl-3-(2,6-dichlorophenyl)-1,2-oxazol-4-yl]methoxy}-2-azabicyclo[2.2.1]heptan-2-yl]-4-[(3S)-oxolan-3-yloxy]-1,3-benzothiazole-6-carboxylic Acid], in test [1], the pEC50 came to 8.8 and the Emax was 148%. In test [2], the Emax was 103% and the concentration giving a half-maximal response (EC50) is 0.398 nM.

On to `O=C(O)c1cc(O[C@@H]2CCOC2)c2nc(N3C[C@@H]4C[C@H]3C[C@H]4OCc3c(-c4c(Cl)cccc4Cl)noc3C3CC3)sc2c1` [Compound I-261, 2-[(1S,4S,5R)-5-{[5-cyclopropyl-3-(2,6-dichlorophenyl)-1,2-oxazol-4-yl]methoxy}-2-azabicyclo[2.2.1]heptan-2-yl]-4-[(3R)-oxolan-3-yloxy]-1,3-benzothiazole-6-carboxylic Acid], for which, in test [1], the pEC50 is 8.6 and the Emax stood at 161%. In addition, in test [2], the Emax came out at 110% and a half-maximal effect (EC50) was put at 0.398 nM.

For the compound `Cc1cc(C(=O)O)cc2sc(N3C[C@@H]4C[C@H]3C[C@H]4OCc3c(-c4c(F)cccc4Cl)noc3C3CC3)nc12` [Compound I-262, 2-[(1S,4S,5R)-5-{[3-(2-chloro-6-fluorophenyl)-5-cyclopropyl-1,2-oxazol-4-yl]methoxy}-2-azabicyclo[2.2.1]heptan-2-yl]-4-methyl-1,3-benzothiazole-6-carboxylic Acid], in test [1], the negative-log EC50 (pEC50) worked out at 8.6 and the Emax amounted to 144%. Further, in test [2], the Emax was found to be 114% and the EC50 is 2 nM.

For the compound `O=C(O)c1cc(OC2CC2)c2nc(N3C[C@@H]4C[C@H]3C[C@H]4OCc3c(-c4c(F)cccc4Cl)noc3C3CC3)sc2c1` [Compound I-263, 2-((1S,4S,5R)-5-((3-(2-chloro-6-fluorophenyl)-5-cyclopropylisoxazol-4-yl)methoxy)-2-azabicyclo[2.2.1]heptan-2-yl)-4-cyclopropoxybenzo[d]thiazole-6-carboxylic acid], in test [1], the pEC50 was found to be 8.6 and the Emax came to 150%. Moreover, in test [2], the Emax stood at 109% and it took 0.1 nM to reach a half-maximal effect (EC50).
